Measured values from patent publication US10662193B2, “Carbazole and carboline compounds for use in the diagnosis, treatment, alleviation or prevention of disorders associated with amyloid or amyloid-like proteins” (AC IMMUNE SA, priority 2014, dated 2020).
pKi: −log10 of the molar value.

Columns and labels:
[1] = system: tau tangles on AD brain section; assay: Assay 1: displacement of RefA on human AD brain sections (fluorescence); format: binding; conditions: for Selectivity (tau/Abeta): ratio of competition on tau tangles to competition on Aβ plaques
Procedure: Direct Binding of Compounds of this Invention to Human Alzheimer's Disease Brain Sections and/or Displacement of RefA and Compound B
Frozen sections with a thickness of […] from the amygdala of donors diagnosed with Braak stage V-VI Alzheimer's Disease (Braak, H.; Braak, E. Acta Neuropathol., 1991, 82, 239-259), were purchased from a commercial provider (Tissue Solutions) and kept at −80° C. until use.
Displacement of RefA and Compound B
Brain sections were mainly treated as described above. Test compounds were, however, incubated on the section at 250 μM in 50% ethanol for 20 min at room temperature, and then directly incubated with the fluorescent reference compounds RefA and Compound B, each at 1 μM in 50% ethanol for 20 min at room temperature. RefA and Compound B stainings were visualized using the 470 nm and 365 nm excitation filters, respectively. Images were acquired, and tangles and plaques quantified using the NIS-Element software. Only those compounds not directly staining tangles or plaques at the same wavelengths as RefA and Compound B were tested in the displacement assay.
Structure of RefA (Tago et al., J. Label. Compd. Radiopharm. 2013, DOI: 10.1002/jlcr.3133)

[2] = target: AD brain-enriched PHF (Homo sapiens, UniProt P10636); assay: Assay 2 (filter trap): [3H]RefA radio-binding competition assay and Ki on PHF; conditions: [^3H]RefA 10 nM; for pKi: PHF diluted 1/80, compound 0.12 nM to 50 μM
Procedure: Displacement of [^3H]RefA by Compounds of this Invention
50 g of frontal lobe tissue from post-mortem brain of an Alzheimer's disease (AD) patient were obtained from the London Tissue Bank. The patient was a […] and died […]. The brain sample was collected 5 hours post-mortem and characterized for Braak disease stage (Braak, H.; Braak, E. Acta Neuropathol., 1991, 82, 239-259) as stage VI. For the enrichment of PHF's, around 15 g of the AD human brain was thawed on ice and homogenized with 50 ml of homogenization buffer [0.75 M NaCl in RAB buffer (100 mM 2-(N-morpholino) ethanesulfonic acid (MES), 1 mM EGTA, 0.5 mM MgSO4, 2 mM DTT, pH 6.8) supplemented with protease inhibitors (Complete; Roche 11697498001) in a glass Dounce homogenizer. The homogenate was then incubated at 4° C. for 20 min to let any residual microtubules depolymerize, before the homogenate was transferred into polycarbonate centrifuge bottles (16×76 mm; Beckman 355603) and centrifuged at 11,000 g (12,700 RPM) in an ultracentrifuge (Beckman, XL100K) for 20 min at 4° C. using the pre-cooled 70.1 rotor (Beckman, 342184). Pellets were kept on ice. Supernatants were pooled into polycarbonate bottles and centrifuged again at 100,000 g (38,000 RPM) for 1 h at 4° C. in the 70.1 Ti rotor to isolate PHF-rich pellets, whereas soluble tau remained in the supernatants. The pellets from the first and second centrifugations were re-suspended in 120 mL of extraction buffer [10 mM Tris-HCl pH 7.4, 10% sucrose, 0.85 M NaCl, 1% protease inhibitor (Calbiochem 539131), 1 mM EGTA, 1% phosphatase inhibitor (Sigma P5726 and P0044)]. The solution was then transferred into polycarbonate centrifuge bottles (16×76 mm; Beckman 355603) and centrifuged at 15,000 g (14,800 RPM) in an ultracentrifuge (Beckman, XL100K) for 20 min at 4° C. using the 70.1 Ti rotor. In the presence of 10% sucrose and at low speed centrifugation, most PHF remained in the supernatant whereas intact or fragmented NFTs and larger PHF aggregates were pelleted. The pellets were discarded. 20% Sarkosyl (Sigma L7414-10ML) was added to the supernatants to a final concentration of 1% and stirred at room temperature for 1 h. This solution was then centrifuged into polycarbonate bottles at 100,000 g (38,000 RPM) for 1 h at 4° C. in the 70.1 Ti rotor, and the pellets containing PHF-rich material were re-suspended in a total final volume of 1.5 mL of PBS, aliquoted and stored at −80° C.
[^3H]RefA Radio-Binding Competition Assay
AD brain-enriched PHF diluted 1/80 were incubated in the presence of [^3H]RefA at 10 nM and the example compounds of this invention at 2.5 μM (250× excess), for 45 minutes at 37° C. Samples were then analyzed by on GF/B filter plates as described above (in the section “[^3H]RefA radio-binding assay and determination of the dissociation constant (Kd)). Non-specific signal was determined again with an excess of un-labeled RefA and specific binding calculated by subtracting the non-specific signal from the total signal. Competition was calculated as percent, where 0% was defined as the specific binding in the presence of vehicle (2.8% DMSO in PBS) and 100% as the values obtained in the presence of excess cold RefA. Similar assays were performed to determine the competition of the cold compounds on [^3H]RefA on in vitro aggregated recombinant human tau or Abeta1-42 For both recombinant proteins, 20 μg/mL of aggregates were incubated with 10 nM of [^3H]RefA for recombinant human tau or 80 nM of [^3H]RefA for recombinant human Abeta1-42.
Determination of the Binding Affinity (Ki)
Samples were then analyzed on GF/B filter plates as described above and Ki values calculated using Prism V5 (GraphPad).

[3] = system: tau tangles/Aβ plaques on AD brain sections; assay: Assay 1: direct staining of human Alzheimer's disease brain sections (fluorescence); format: binding; design: key to Direct staining of tau tangles/Aβ plaques on AD brain sections at 100 μM / Direct staining of tau tangles on AD brain sections at 100 μM / Direct staining of Aβ plaques on AD brain sections at 100 μM / Direct staining of tau tangles on AD brain sections (footnote a: at 250 μM): − (No); +++ (strong); ++ (good); + (weak); conditions: for Direct staining of tau tangles/Aβ plaques on AD brain sections at 100 μM: human AD brain sections, fluorescence, cell does not say tangles or plaques; for Direct staining of tau tangles on AD brain sections (footnote a: at 250 μM): 250 μM compound
Summary of the method: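 Frozen […] amygdala sections from Braak V-VI AD donors, PFA-fixed, incubated with compound at 100 μM in 50% ethanol for 20 min at room temperature in the dark. Sudan Black quenched autofluorescence, then staining detected by fluorescence microscopy.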

[4] = system: Aβ plaques on AD brain section; assay: Assay 1: displacement of Compound B on human AD brain sections (fluorescence); format: binding
Procedure: Direct Binding of Compounds of this Invention to Human Alzheimer's Disease Brain Sections and/or Displacement of RefA and Compound B Frozen sections with a thickness of […] from the amygdala of donors diagnosed with Braak stage V-VI Alzheimer's Disease (Braak, H.; Braak, E. Acta Neuropathol., 1991, 82, 239-259), were purchased from a commercial provider (Tissue Solutions) and kept at -80° C. until use. Displacement of RefA and Compound B Brain sections were mainly treated as described above. Test compounds were, however, incubated on the section at 250 μM in 50% ethanol for 20 min at room temperature, and then directly incubated with the fluorescent reference compounds RefA and Compound B, each at 1 μM in 50% ethanol for 20 min at room temperature. RefA and Compound B stainings were visualized using the 470 nm and 365 nm excitation filters, respectively. Images were acquired, and tangles and plaques quantified using the NIS-Element software. Only those compounds not directly staining tangles or plaques at the same wavelengths as RefA and Compound B were tested in the displacement assay. Structure of Compound B (prepared by a similar procedure described for […] in WO2010/011964): […]

Sequence of AD brain-enriched PHF (P10636 623-708 limits assumed): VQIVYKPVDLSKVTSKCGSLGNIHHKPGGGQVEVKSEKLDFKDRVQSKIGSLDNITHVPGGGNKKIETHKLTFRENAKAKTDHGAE

| SMILES | Competition on AD brain section tau tangles (1 μM RefA vs. 250 μM compound) [1] | Selectivity (tau/Abeta) [1] | pKi [2] | Competition on AD brain section Aβ plaques (1 μM Compound B vs 250 μM compound) [4] [%] | inhibition at 2.5 µM ([2]; compound 2.5 μM, no Ki determined) [%] | Direct staining of tau tangles/Aβ plaques on AD brain sections at 100 μM ([3]; 100 μM compound) | Direct staining of tau tangles on AD brain sections (footnote a: at 250 μM) [3] | Direct staining of tau tangles on AD brain sections at 100 μM ([3]; 100 μM compound) | Direct staining of Aβ plaques on AD brain sections at 100 μM ([3]; 100 μM compound, plaques) |
| --- | --- | --- | --- | --- | --- | --- | --- | --- | --- |
| Cn1c2ccncc2c2ccc(Nc3cccc(N4CCOCC4)c3)nc21 [Example 1] | 84% | ~2.6 fold | 7.11 | 32 |  | − |  |  |  |
| Cn1c2ccncc2c2ccc(Nc3ccc(F)c(N4CCOCC4)c3)nc21 [Example 3] | 78% | ~9.8 fold | 6.63 | 8 |  | − |  |  |  |
| Cn1c2ccncc2c2ccc(Nc3cccc(OC(F)F)c3)nc21 [Example 4] | 91% | ~5.4 fold | 8.48 | 17 |  |  | + (tangles)^a |  |  |
| Cn1c2ccncc2c2ccc(Nc3ccc(F)cc3N3CCOCC3)nc21 [Example 5] | 0% |  | 6.52 | 12 |  | − |  |  |  |
| Cn1c2ccncc2c2ccc(Nc3cc(F)cc(N4CCOCC4)c3)nc21 [Example 7] | 84% | >84 fold | 6.49 | 0 |  |  |  | ++ (tangles) |  |
| Cn1c2ccncc2c2ccc(Nc3cccc(N4CCOCC4)c3F)nc21 [Example 12] | 98% | >98 fold | 6.78 | 0 |  | − |  |  |  |

Now from value to compound, other results behind:

| Competition on AD brain section tau tangles (1 μM RefA vs. 250 μM compound) [1] | Selectivity (tau/Abeta) [1] | pKi [2] | Competition on AD brain section Aβ plaques (1 μM Compound B vs 250 μM compound) [4] [%] | inhibition at 2.5 µM ([2]; compound 2.5 μM, no Ki determined) [%] | SMILES | Direct staining of tau tangles/Aβ plaques on AD brain sections at 100 μM ([3]; 100 μM compound) | Direct staining of tau tangles on AD brain sections (footnote a: at 250 μM) [3] | Direct staining of tau tangles on AD brain sections at 100 μM ([3]; 100 μM compound) | Direct staining of Aβ plaques on AD brain sections at 100 μM ([3]; 100 μM compound, plaques) |
| --- | --- | --- | --- | --- | --- | --- | --- | --- | --- |
| 88% | >88 fold |  | −21 |  | Cn1c2ccncc2c2ccc(Nc3cccc(OCCF)n3)nc21 [Example 44] |  |  | ++ (tangles) |  |
| 93%. | >93 fold |  | −9 |  | Cn1c2ccncc2c2ccc(Nc3cncc(OCCF)c3)nc21 [Example 59] |  |  | +++ (tangles) |  |
|  |  |  | 35 |  | Cn1c2ccncc2c2ccc(Nc3cncc(OCCOCCF)c3)nc21 [Example 65] |  |  | ++ (tangles) |  |
|  |  |  | 59 |  | Cn1c2ccncc2c2ccc(Nc3cccc(OCCOCCF)c3)nc21 [Example 95] |  |  | ++ (tangles) |  |
|  |  |  | 18 |  | Cn1c2ccncc2c2ccc(Nc3cccc(OCCOCCOCCF)c3)nc21 [Example 96] |  |  | ++ (tangles) |  |
| 18% |  |  | 3 |  | Cn1c2ccncc2c2ccc(N3CCOC[C@H]3CF)nc21 [Example 150] |  | + (tangles)^a |  |  |
| 99% | ~2.4-fold |  | 42 |  | Cn1c2ccncc2c2ccc(N3CCC(CCF)CC3)nc21 [Example 151] | − |  |  |  |
| 90% | ~6-fold |  | 15 |  | Cn1c2ccncc2c2ccc(N3CCC(CCOCCF)CC3)nc21 [Example 155] |  |  | + (tangles) + (plaques) | + (tangles) + (plaques) |
| 6% |  |  | 0 | < 50 | CN1CCc2c(c3ccc(Nc4ccc(F)cc4N4CCOCC4)nc3n2C)C1=O [Example 175] | − |  |  |  |
